Values after ≈ are worked out from the molar mass of the structure shown. One block for each molecule: values may come before it. Active and inactive are the calls of the source. No cut-off for these calls is given here.
What was measured:
Escherichia coli [1] = assay: Antimicrobial activity against Escherichia coli S6 expressing extended-spectrum beta-lactamase TEM-116 and SHV-12; format: functional
Escherichia coli [2] = assay: Antimicrobial activity against Escherichia coli S5 expressing extended-spectrum beta-lactamase TEM-116 in presence of beta-lactamase inhibitor clavulanic acid; format: functional
Escherichia coli [3] = assay: Antimicrobial activity against Escherichia coli S5 expressing extended-spectrum beta-lactamase TEM-116; format: functional
Escherichia coli [4] = assay: Antimicrobial activity against Escherichia coli S1 expressing penicillinase TEM-1; format: functional
Escherichia coli [5] = assay: Antimicrobial activity against Escherichia coli S3 overexpressing penicillinase TEM-1 in presence of beta-lactamase inhibitor clavulanic acid; format: functional
Escherichia coli [6] = assay: Antimicrobial activity against Escherichia coli S4 expressing inhibitor-resistant TEM-34 in presence of beta-lactamase inhibitor clavulanic acid; format: functional
Escherichia coli [7] = assay: Antimicrobial activity against Escherichia coli S2 expressing penicillinase TEM-1 in presence of beta-lactamase inhibitor clavulanic acid; format: functional
Escherichia coli [8] = assay: Antimicrobial activity against Escherichia coli S7 expressing extended-spectrum beta-lactamase SHV-12 and penicillinase TEM-1 in presence of beta-lactamase inhibitor clavulanic acid; format: functional
Escherichia coli [9] = assay: Antimicrobial activity against Escherichia coli S4 expressing inhibitor-resistant TEM-34; format: functional
Escherichia coli [10] = assay: Antimicrobial activity against Escherichia coli S7 expressing extended-spectrum beta-lactamase SHV-12 and penicillinase TEM-1; format: functional
Escherichia coli [11] = assay: Antimicrobial activity against Escherichia coli S1 expressing penicillinase TEM-1 in presence of beta-lactamase inhibitor clavulanic acid; format: functional
Escherichia coli [12] = assay: Antimicrobial activity against Escherichia coli S3 overexpressing penicillinase TEM-1; format: functional
Escherichia coli [13] = assay: Antimicrobial activity against Escherichia coli S6 expressing extended-spectrum beta-lactamase TEM-116 and SHV-12 in presence of beta-lactamase inhibitor clavulanic acid; format: functional
Escherichia coli [14] = assay: Antimicrobial activity against Escherichia coli S2 expressing penicillinase TEM-1; format: functional
Escherichia coli [15] = assay: Antimicrobial activity against Escherichia coli S2 expressing penicillinase TEM-1 assessed as log reduction in bacterial count after 4 to 24 hrs in presence of magnesium ions; format: functional
Escherichia coli [16] = assay: Antimicrobial activity against Escherichia coli S1 expressing penicillinase TEM-1 after 8 hrs; format: functional, organism-based
Escherichia coli [17] = assay: Antimicrobial activity against Escherichia coli S2 expressing penicillinase TEM-1after 12 hrs; format: functional, organism-based
Homo sapiens [18] = assay: Clearance in human at […], po after 5 hrs to 12 hrs; format: ADME, organism-based; design: route oral; conditions: in vivo
Escherichia coli [19] = assay: Antimicrobial activity against Escherichia coli S7 expressing extended-spectrum beta-lactamase SHV-12 and penicillinase TEM-1 after 24 hrs; format: functional, organism-based
Escherichia coli [20] = assay: Antimicrobial activity against Escherichia coli S7 expressing extended-spectrum beta-lactamase SHV-12 and penicillinase TEM-1 after 12 hrs; format: functional, organism-based
Escherichia coli [21] = assay: Antimicrobial activity against Escherichia coli S6 expressing extended-spectrum beta-lactamase TEM-116 and SHV-12 after 12 hrs; format: functional, organism-based
Escherichia coli [22] = assay: Antimicrobial activity against Escherichia coli S4 expressing inhibitor-resistant TEM-34 after 24 hrs; format: functional, organism-based
Escherichia coli [23] = assay: Antimicrobial activity against Escherichia coli S1 expressing penicillinase TEM-1 assessed as log reduction in bacterial count after 4 to 24 hrs in presence of magnesium ions; format: functional
Escherichia coli [24] = assay: Antimicrobial activity against Escherichia coli S1 expressing penicillinase TEM-1 after 12 hrs; format: functional, organism-based
Escherichia coli [25] = assay: Antimicrobial activity against Escherichia coli S2 expressing penicillinase TEM-1 assessed as log reduction in bacterial count after 4 to 24 hrs in presence of calcium ions; format: functional
Escherichia coli [26] = assay: Antimicrobial activity against Escherichia coli S1 expressing penicillinase TEM-1 assessed as log reduction in bacterial count upto 8 hrs; format: functional
Escherichia coli [27] = assay: Antimicrobial activity against Escherichia coli S1 expressing penicillinase TEM-1 after 24 hrs; format: functional, organism-based
Escherichia coli [28] = assay: Antimicrobial activity against Escherichia coli S4 expressing inhibitor-resistant TEM-34 after 8 hrs; format: functional, organism-based
Escherichia coli [29] = assay: Antimicrobial activity against Escherichia coli S4 expressing inhibitor-resistant TEM-34 after 12 hrs; format: functional, organism-based
Escherichia coli [30] = assay: Antimicrobial activity against Escherichia coli S5 expressing extended-spectrum beta-lactamase TEM-116 after 8 hrs; format: functional, organism-based
Escherichia coli [31] = assay: Antimicrobial activity against Escherichia coli S7 expressing extended-spectrum beta-lactamase SHV-12 and penicillinase TEM-1 after 8 hrs; format: functional, organism-based
Homo sapiens [32] = assay: Clearance in human at […], po after 3 hrs to 5 hrs; format: ADME, organism-based; design: route oral; conditions: in vivo
Escherichia coli [33] = assay: Antimicrobial activity against Escherichia coli S3 overexpressing penicillinase TEM-1after 12 hrs; format: functional, organism-based
Homo sapiens [34] = assay: Drug level in human urine at […], po after 8 to 12 hrs; format: ADME, organism-based; design: route oral; conditions: in vivo
Escherichia coli [35] = assay: Antimicrobial activity against Escherichia coli S1 expressing penicillinase TEM-1 assessed as log reduction in bacterial count after 4 to 24 hrs in presence of calcium ions; format: functional
Escherichia coli [36] = assay: Antimicrobial activity against Escherichia coli S5 expressing extended-spectrum beta-lactamase TEM-116 assessed as log reduction in bacterial count from 3 to 24 hrs; format: functional
Escherichia coli [37] = assay: Antimicrobial activity against Escherichia coli S6 expressing extended-spectrum beta-lactamase TEM-116 and SHV-12 after 8 hrs; format: functional, organism-based
Escherichia coli [38] = assay: Antimicrobial activity against Escherichia coli S6 expressing extended-spectrum beta-lactamase TEM-116 and SHV-12 after 24 hrs; format: functional, organism-based
Escherichia coli [39] = assay: Antimicrobial activity against Escherichia coli S5 expressing extended-spectrum beta-lactamase TEM-116 after 24 hrs; format: functional, organism-based
Escherichia coli [40] = assay: Antimicrobial activity against Escherichia coli S3 overexpressing penicillinase TEM-1 after 8 hrs; format: functional, organism-based
Escherichia coli [41] = assay: Antimicrobial activity against Escherichia coli; format: functional
Escherichia coli [42] = assay: Antimicrobial activity against Escherichia coli S6 expressing extended-spectrum beta-lactamase TEM-116 and SHV-12assessed as log reduction in bacterial count upto 8 hrs; format: functional
Escherichia coli [43] = assay: Antimicrobial activity against Escherichia coli S2 expressing penicillinase TEM-1 after 8 hrs; format: functional, organism-based
Escherichia coli [44] = assay: Antimicrobial activity against Escherichia coli S4 expressing inhibitor-resistant TEM-34 assessed as log reduction in bacterial count upto 8 hrs; format: functional
Homo sapiens [45] = assay: Clearance in human at […], po after 3 hrs; format: ADME, organism-based; design: route oral; conditions: in vivo
Escherichia coli [46] = assay: Antimicrobial activity against Escherichia coli S3 overexpressing penicillinase TEM-1 assessed as log reduction in bacterial count upto 8 hrs; format: functional
Escherichia coli [47] = assay: Antimicrobial activity against Escherichia coli S5 expressing extended-spectrum beta-lactamase TEM-116 after 12 hrs; format: functional, organism-based
Escherichia coli [48] = assay: Antimicrobial activity against Escherichia coli S2 expressing penicillinase TEM-1after 24 hrs; format: functional, organism-based
Escherichia coli [49] = assay: Antimicrobial activity against Escherichia coli S5 expressing extended-spectrum beta-lactamase TEM-116 assessed as log reduction in bacterial count upto 8 hrs; format: functional
Escherichia coli [50] = assay: Antimicrobial activity against Escherichia coli S2 expressing penicillinase TEM-1 assessed as log reduction in bacterial count upto 8 hrs; format: functional
Escherichia coli [51] = assay: Antimicrobial activity against Escherichia coli S3 overexpressing penicillinase TEM-1 after 24 hrs; format: functional, organism-based

Structure (SMILES): CC1(C)S[C@@H]2[C@H](NC(=O)[C@H](N)c3ccc(O)cc3)C(=O)N2[C@H]1C(=O)O [AMOXICILLIN]
MIC (Escherichia coli [1]): 8 µg/mL (≈ 21.9 µM) | MIC (Escherichia coli [2]): 2 µg/mL | MIC (Escherichia coli [3]): 4 µg/mL (≈ 10.9 µM) | MIC (Escherichia coli [4]): 8 µg/mL (≈ 21.9 µM) | MIC (Escherichia coli [5]): 16 µg/mL | MIC (Escherichia coli [6]): 16 µg/mL | MIC (Escherichia coli [7]): 2 µg/mL | MIC (Escherichia coli [8]): 8 µg/mL | MIC (Escherichia coli [9]): 32 µg/mL (≈ 87.6 µM) | MIC (Escherichia coli [10]): 16 µg/mL (≈ 43.8 µM) | MIC (Escherichia coli [11]): 4 µg/mL | MIC (Escherichia coli [12]): 32 µg/mL (≈ 87.6 µM) | MIC (Escherichia coli [13]): 4 µg/mL | MIC (Escherichia coli [14]): 4 µg/mL (≈ 10.9 µM)

Structure (SMILES): CO/N=C(\C(=O)N[C@@H]1C(=O)N2C(C(=O)OCOC(=O)C(C)(C)C)=C(/C=C\c3scnc3C)CS[C@H]12)c1csc(N)n1 [CEFDITOREN PIVOXIL]
MIC (Escherichia coli [1]): 8 µg/mL (≈ 12.9 µM) | FC (Escherichia coli [15]): >4 | Activity (Escherichia coli [16]): Active | Activity (Escherichia coli [17]): Active | CL (Homo sapiens [18]): 3.04 mL/min | MIC (Escherichia coli [3]): 0.5 µg/mL (≈ 0.805 µM) | Activity (Escherichia coli [19]): inactive | MIC (Escherichia coli [4]): 0.25 µg/mL (≈ 0.403 µM) | Activity (Escherichia coli [20]): inactive | Activity (Escherichia coli [21]): inactive | Activity (Escherichia coli [22]): Active | FC (Escherichia coli [23]): >4 | Activity (Escherichia coli [24]): Active | FC (Escherichia coli [25]): >4 | FC (Escherichia coli [26]): >=3 | Activity (Escherichia coli [27]): Active | MIC (Escherichia coli [9]): 2 µg/mL (≈ 3.22 µM) | Activity (Escherichia coli [28]): Active | MIC (Escherichia coli [10]): 16 µg/mL (≈ 25.8 µM) | Activity (Escherichia coli [29]): Active | Activity (Escherichia coli [30]): Active | Activity (Escherichia coli [31]): inactive | CL (Homo sapiens [32]): 2.88 mL/min | Activity (Escherichia coli [33]): Active | Drug uptake (Homo sapiens [34]): 12.7 µg/mL | MIC (Escherichia coli [12]): 1 µg/mL (≈ 1.61 µM) | FC (Escherichia coli [35]): >4 | FC (Escherichia coli [36]): >=3 | Activity (Escherichia coli [37]): inactive | Activity (Escherichia coli [38]): inactive | Activity (Escherichia coli [39]): inactive | Activity (Escherichia coli [40]): Active | MIC90 (Escherichia coli [41]): 0.5 µg/mL (≈ 0.805 µM) | FC (Escherichia coli [42]): >=8 | Activity (Escherichia coli [43]): Active | FC (Escherichia coli [44]): >=6 | CL (Homo sapiens [45]): 0.86 mL/min | FC (Escherichia coli [46]): >=5 | MIC (Escherichia coli [14]): 1 µg/mL (≈ 1.61 µM) | Activity (Escherichia coli [47]): inactive | Activity (Escherichia coli [48]): Active | FC (Escherichia coli [49]): >=7 | FC (Escherichia coli [50]): >=4 | Activity (Escherichia coli [51]): Active

Structure (SMILES): CO/N=C(\C(=O)N[C@@H]1C(=O)N2C(C(=O)O)=C(COC(N)=O)CS[C@H]12)c1ccco1 [CEFUROXIME]
MIC (Escherichia coli [1]): > 128 µg/mL | MIC (Escherichia coli [3]): 32 µg/mL (≈ 75.4 µM) | MIC (Escherichia coli [4]): 4 µg/mL (≈ 9.43 µM) | MIC (Escherichia coli [9]): 4 µg/mL (≈ 9.43 µM) | MIC (Escherichia coli [10]): 32 µg/mL (≈ 75.4 µM) | MIC (Escherichia coli [12]): 8 µg/mL (≈ 18.9 µM) | MIC (Escherichia coli [14]): 4 µg/mL (≈ 9.43 µM)

MIC (Escherichia coli [4]): 0.007 µg/mL (≈ 0.0211 µM) | MIC (Escherichia coli [10]): > 32 µg/mL | MIC (Escherichia coli [14]): > 32 µg/mL
Structure (SMILES): O=C(O)c1cn(C2CC2)c2cc(N3CCNCC3)c(F)cc2c1=O [CIPROFLOXACIN]
